# Data reported in patent publication US20240197709A1, “POTENTIATING THE TUMOR-SELECTIVE EFFECTS OF NQO1-BIOACTIVATABLE AGENT BY USE OF CMET INHIBITOR” (The Trustees of Indiana University, priority 2022, published 2024).
# How the values were obtained:
# [1] = test system: cellular hydrogen peroxide (H2O2) levels in A549 cells; test: ROS-Glo H2O2 Assay; format: cell-based; settings: A549, β-lap 3 μM, within 15 min, further increased at two hours
# Experimental: FIG. 2-1A. […] Growth media was then replaced with fresh media containing β-lap (3 μM) alone, criz alone (1 μM) or combination±DIC (50 μM) and collected at 15 and 120 min to measure H2O2 production using the ROS-Glo™ H2O2 Assay from Promega (Madison, WI). The assay was performed in three biological replicates.
# (§1) Next, we sought to investigate the mechanistic role of cMET in promoting resistance to ROS-induced DNA lesions caused by the futile redox cycling of β-lap with NQO1. […] In response to H2O2 stimulation, cMET can translocate into the nucleus where it interacts with PARP1 for activation to enhance the repair of ROS-induced DNA damage. […] Next we performed PARP1 immunoprecipitation studies to determine whether it associates with activated cMET in the nucleus following treatment with β-lap at increasing doses.
# [2] = test system: pY1234-cMET / PARP1; test: PARP1 immunoprecipitation (co-IP); format: cell-based; settings: A549, β-lap 3 and 6 μM for 2 h
# Source text: as §1
# [3] = test system: A549 shMET; test: migration and invasion, A549 shSCR versus shMET; format: cell-based; settings: β-lap 3 μM 2 h, p<0.001
# Experimental: FIG. 4H. Representative images of A549 shSCR versus shMET migration at 16 h following treatments with DMSO-treated control and β-Lap (3 μM) for 2 h. Scale bars, 50 μm;
# FIG. 4I. Bar graph showing quantification of cell migration expressed as a percent of control (vehicle). Quantitative data were shown as the mean±SEM. **** p<0.0001, ** p<0.01, *p<0.05, ns=not significant.
# FIG. 4J. Representative images of A549 shSCR versus shMET invasion using a matrigel-coated transwell system at 16 h following treatments with DMSO-treated control and β-Lap (3 μM) for 2 h. Scale bars, 50 μm;
# FIG. 4K. Bar graph showing quantification of cell invasion expressed as a percent of control (vehicle). Quantitative data were shown as the mean±SEM. **** p<0.0001, ** p<0.01, *p<0.05, ns=not significant.
# FIG. 4-1B. Bar graph illustrating percentage wound closure at indicated time points in A549 shSCR versus shMET treated with vehicle control or non-lethal β-lap for 2 h. Two-way ANOVA was used for statistical analyses; * p<0.05.
# Overexpression of cMET in many cancers, including NSCLC and PDAC, is known to enhance cancer cell mobility, migration, and invasion (Spina, et al., Biomedicines 2015, 3(1), 71-88). […]
# [4] = test system: A549 shMET 3D spheroids; test: 3D spheroid growth and viability, A549 shMET; format: cell-based; settings: β-lap 3 μM
# Experimental: FIG. 5A. Representative brightfield images of A549 shSCR versus shMET 3D spheroids treated with vehicle control (0.1% DMSO) or β-lap (3 μM, which is sub-lethal in A549 NSCLC cells in 2D long-term survival assays) imaged at indicated times to monitor microtumor spheroid growth. Scale bar=250 μm.
# FIG. 5B. Graphical comparison of 3D spheroid (microtumor) growth of A549 shSCR vs shMET at indicated treatments over time relative to initial 3D spheroid area (day 1).
# FIG. 5C. Quantification of 3D spheroid viability at day 10 (in panel A) using CellTiter-Glo® 3D Cell Viability Assay.
# Studies have shown that drug sensitivity of cancer cells cultured in three-dimension (3D) more accurately predicts their sensitivity in vivo.30-31 Thus, we utilized 3D tumor spheroid growth of our isogenic A549 shSCR or shMET cancer cell lines to closely recapitulate the cell-cell interactions of human tumors32-33. After three days of spheroid formation, A549 shSCR and shMET microtumors were exposed to vehicle control (0.1% DMSO) or β-lap (3 μM, sub-lethal concentration in 2D culture for A549 parental line), and imaged over time for 3D spheroid tumor growth for comparison. […] Additionally, the viability of A549 shSCR versus shMET 3D spheroids treated with vehicle control and β-lap at day 10 was determined using CellTiter-Glo® 3D Viability Assay (FIG. 5C) for comparison. […]
# [5] = test system: pY1234-cMET/PARP1 nuclear interaction, A549; settings: A549, β-lap 3 μM, 2 h
# [6] = β-lap monotherapy; cited from earlier work
# [7] = test system: pY1234-cMET (activated cMET) in the nucleus, A549; test: Western blots of nuclear versus cytoplasmic fractions; settings: A549, β-lap 3 μM and 6 μM for 2 h
# Experimental: Images of Western blots of nuclear versus cytoplasmic fractions from A549 cells treated with vehicle (DMSO, 0.1%) control and indicated concentrations of β-lap±DIC (50 μM) for 2 h. Lamin B1 and tubulin were used as loading controls for nuclear and cytoplasmic fractions, respectively.
# Bar graph depicting quantification of pY1234-cMET (activated cMET) in the nucleus at indicated treatment conditions.
smiles,measurement,setting,value
"CC1(C)CCC2=C(O1)c1ccccc1C(=O)C2=O [β-lap, β-Lapachone]",relative amount of cellular H2O2,[1],significantly increased
same,pY1234-cMET co-immunoprecipitated with PARP1,[2],increasing levels of pY1234-cMET with PARP1
same,cell invasion,[3],significantly reduces
same,cell migration,[3],significantly reduces
same,3D spheroid (microtumor) growth over time,[4],potentiated the lethal effect
same,3D spheroid viability at day 10 (CellTiter-Glo 3D),[4],more hypersensitive
same,in situ interaction between activated cMET and PARP1 (PLA foci),[5],enhanced in situ interaction
same,toxicity at high doses in clinical trials,[6],methemoglobinemia and haemolysis
same,translocation of activated cMET (pY1234-cMET) into the nucleus,[7],greatly enhanced
